# Measured values reported in US9050341B2, “Methods of treating drug resistant and other tumors by administering 6,7-dialkoxy quinazoline derivatives” (NATCO PHARMA LIMITED, priority 2009, dated 2015).
# Key:
# hERG channel = hERG channel (Homo sapiens, UniProt Q12809); assay: hERG whole cell patch-clamp in CHO cells; details: 10 μM
# Description: The test compound was evaluated at 10 μM in 0.1% DMSO (v/v). […] The vehicle control was 0.1% (v/v) DMSO in EC solution.
# The selection medium was F-12 (Ham)+GlutaMAX, Ph 7.2, 10% FBS, Penicillin (100 U/mL), Streptomycin (100 μg/mL), Blasticidin S HCL (30 μg/mL) and Hygromycin B (400 μg/mL). The growth medium was F-12 (Ham)+GlutaMAX, 10% FBS, Penicillin (100 U/mL) and Streptomycin (100 μg/mL). The induction medium was F-12 (Ham)+GlutaMAX, 10% FBS, Penicillin (100 U/mL) and Streptomycin (100 μg/mL) and Doxycycline (3 μg/mL). The cell dissociation solution was 0.05% Trypsin-EDTA.
# PIP5K2B = biological target: T1, PIP5K2B (Homo sapiens, UniProt P78356); assay: KinomeScan kinase profiling; type: binding
# T1 construct: purchased Ambit Biosciences Corp (KinomeScan); host or cells: E. coli host derived from BL21, infected with T7 phage
# CHEK1 = biological target: T2, CHEK1 (Homo sapiens, UniProt O14757); assay: KinomeScan kinase profiling; type: binding
# T2 construct: host or cells: T7 phage in E. coli (BL21-derived)
# DYRK1B = biological target: T3, DYRK1B (Homo sapiens, UniProt Q9Y463); assay: KinomeScan kinase profiling; type: binding
# T3 construct: purchased Ambit Biosciences Corp (KinomeScan); host or cells: T7 phage in E. coli host derived from BL21
# MRCKB = biological target: T4, MRCKB (Homo sapiens, UniProt Q9Y5S2); assay: KinomeScan kinase profiling; type: binding
# T4 construct: host or cells: T7 phage in E. coli host derived from BL21
# Procedure, shortened: (§1)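 Kinases were expressed as T7 phage fusions in a BL21-derived E. coli host and the cleared lysates were used. Ligand beads were blocked with biotin and buffer (1% BSA, 0.05% Tween 20, 1 mM DTT). Compounds came from 40× DMSO stocks, and phage in the eluates was titred by qPCR.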
# ABL2 = biological target: T5, ABL2 (Homo sapiens, UniProt P42684); assay: KinomeScan kinase profiling; type: binding
# T5 construct: host or cells: E. coli host derived from BL21 (T7 phage lysate)
# Procedure, shortened: as §1
# NEK2 = biological target: T6, NEK2 (Homo sapiens, UniProt P51955); assay: KinomeScan kinase profiling; type: binding
# T6 construct: host or cells: T7 phage in E. coli host derived from BL21
# Procedure, shortened: as §1
# FES = biological target: T7, FES (Homo sapiens, UniProt P07332); assay: KinomeScan kinase profiling; type: binding
# T7 construct: host or cells: E. coli host derived from BL21, infected with T7 phage
# Procedure, shortened: as §1
# MKNK2 = biological target: T8, MKNK2 (Homo sapiens, UniProt Q9HBH9); assay: KinomeScan kinase profiling; type: binding
# T8 construct: host or cells: T7 phage in E. coli host derived from BL21
# Procedure, shortened: as §1
# DDR1 = biological target: T9, DDR1 (Homo sapiens, UniProt Q08345); assay: KinomeScan kinase profiling; type: binding
# T9 construct: purchased Ambit Biosciences Corp (KinomeScan); host or cells: T7 phage in E. coli host derived from BL21
# Procedure, shortened: as §1
# SRMS = biological target: T10, SRMS (Homo sapiens, UniProt Q9H3Y6); assay: KinomeScan kinase profiling; type: binding
# T10 construct: host or cells: E. coli host derived from the BL21 strain, T7 phage lysate
# Procedure, shortened: as §1
# PCTK1 = biological target: T11, PCTK1 (Homo sapiens, UniProt Q00536); assay: KinomeScan kinase profiling; type: binding
# T11 construct: host or cells: E. coli host derived from the BL21 strain, infected with T7 phage
# Procedure, shortened: as §1
# CDK3 = biological target: T12, CDK3 (Homo sapiens, UniProt Q00526); assay: KinomeScan kinase profiling; type: binding
# T12 construct: host or cells: T7 phage in E. coli (BL21-derived)
# Procedure, shortened: as §1
# ULK3 = biological target: T13, ULK3 (Homo sapiens, UniProt Q6PHR2); assay: KinomeScan kinase profiling; type: binding
# T13 construct: purchased Ambit Biosciences Corp (KinomeScan); host or cells: E. coli host derived from the BL21 strain (T7 phage lysate)
# Procedure, shortened: as §1
# DAPK3 = biological target: T14, DAPK3 (Homo sapiens, UniProt O43293); assay: KinomeScan kinase profiling; type: binding
# T14 construct: purchased Ambit Biosciences Corp (KinomeScan); host or cells: T7 phage in E. coli host derived from BL21
# Procedure, shortened: as §1
# MEK1 = biological target: T15, MEK1 (Homo sapiens, UniProt Q02750); assay: KinomeScan kinase profiling; type: binding
# T15 construct: host or cells: E. coli derived from BL21, infected with T7 phage
# Procedure, shortened: as §1
# STK33 = biological target: T16, STK33 (Homo sapiens, UniProt Q9BYT3); assay: KinomeScan kinase profiling; type: binding
# T16 construct: host or cells: E. coli host derived from the BL21 strain, T7 phage lysate
# CDK2 = biological target: T17, CDK2 (Homo sapiens, UniProt P24941); assay: KinomeScan kinase profiling; type: binding
# T17 construct: host or cells: T7 phage in E. coli (BL21-derived)
# MEK6 = biological target: T18, MEK6 (Homo sapiens, UniProt P52564); assay: KinomeScan kinase profiling; type: binding
# T18 construct: host or cells: E. coli derived from BL21, infected with T7 phage
# SRPK1 = biological target: T19, SRPK1 (Homo sapiens, UniProt Q96SB4); assay: KinomeScan kinase profiling; type: binding
# T19 construct: host or cells: E. coli host derived from the BL21 strain, T7 phage lysate
# BMPR1A = biological target: T20, BMPR1A (Homo sapiens, UniProt P36894); assay: KinomeScan kinase profiling; type: binding
# T20 construct: purchased Ambit Biosciences Corp (KinomeScan); host or cells: E. coli host derived from the BL21 strain, T7 phage
# PKAC-alpha = biological target: T21, PKAC-alpha (Homo sapiens, UniProt P17612); assay: KinomeScan kinase profiling; type: binding
# T21 construct: purchased Ambit Biosciences Corp (KinomeScan); host or cells: E. coli host derived from BL21, infected with T7 phage
# PRKCD = biological target: T22, PRKCD (Homo sapiens, UniProt Q05655); assay: KinomeScan kinase profiling; type: binding
# T22 construct: purchased Ambit Biosciences Corp (KinomeScan); host or cells: E. coli host derived from BL21, infected with T7 phage
# T22 sequence (Q05655 whole entry): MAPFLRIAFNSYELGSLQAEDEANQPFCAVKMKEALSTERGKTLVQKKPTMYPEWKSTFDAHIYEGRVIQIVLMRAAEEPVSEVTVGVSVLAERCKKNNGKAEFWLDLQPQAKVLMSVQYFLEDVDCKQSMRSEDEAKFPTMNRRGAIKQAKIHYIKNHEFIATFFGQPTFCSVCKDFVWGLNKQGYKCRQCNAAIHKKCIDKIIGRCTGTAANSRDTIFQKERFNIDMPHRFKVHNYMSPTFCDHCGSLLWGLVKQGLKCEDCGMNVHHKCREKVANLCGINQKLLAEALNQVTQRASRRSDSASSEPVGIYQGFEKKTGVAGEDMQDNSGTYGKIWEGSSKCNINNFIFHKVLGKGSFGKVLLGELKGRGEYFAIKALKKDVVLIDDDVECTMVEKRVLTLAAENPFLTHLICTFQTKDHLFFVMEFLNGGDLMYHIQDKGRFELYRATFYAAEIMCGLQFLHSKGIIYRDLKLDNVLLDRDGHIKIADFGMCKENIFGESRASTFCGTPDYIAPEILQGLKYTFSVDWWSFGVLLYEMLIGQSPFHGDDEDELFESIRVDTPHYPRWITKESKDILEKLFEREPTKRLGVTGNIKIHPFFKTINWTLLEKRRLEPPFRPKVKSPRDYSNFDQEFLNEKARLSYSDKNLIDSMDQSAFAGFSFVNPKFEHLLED
# T20 sequence (P36894 24-532): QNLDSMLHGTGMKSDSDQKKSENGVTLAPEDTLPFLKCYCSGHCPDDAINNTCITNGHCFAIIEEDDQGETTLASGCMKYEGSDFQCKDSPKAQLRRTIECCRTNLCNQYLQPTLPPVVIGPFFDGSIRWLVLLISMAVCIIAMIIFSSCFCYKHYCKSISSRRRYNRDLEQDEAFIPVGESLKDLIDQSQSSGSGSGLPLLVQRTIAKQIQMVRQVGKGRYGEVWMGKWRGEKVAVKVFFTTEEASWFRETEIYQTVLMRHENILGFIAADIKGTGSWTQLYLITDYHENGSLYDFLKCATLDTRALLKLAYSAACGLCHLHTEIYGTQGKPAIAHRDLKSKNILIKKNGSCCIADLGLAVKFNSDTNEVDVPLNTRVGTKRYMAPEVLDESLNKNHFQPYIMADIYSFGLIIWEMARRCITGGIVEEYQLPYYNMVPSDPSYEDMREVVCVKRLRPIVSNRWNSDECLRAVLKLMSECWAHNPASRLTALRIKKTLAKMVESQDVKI
# T8 sequence (Q9HBH9 whole entry): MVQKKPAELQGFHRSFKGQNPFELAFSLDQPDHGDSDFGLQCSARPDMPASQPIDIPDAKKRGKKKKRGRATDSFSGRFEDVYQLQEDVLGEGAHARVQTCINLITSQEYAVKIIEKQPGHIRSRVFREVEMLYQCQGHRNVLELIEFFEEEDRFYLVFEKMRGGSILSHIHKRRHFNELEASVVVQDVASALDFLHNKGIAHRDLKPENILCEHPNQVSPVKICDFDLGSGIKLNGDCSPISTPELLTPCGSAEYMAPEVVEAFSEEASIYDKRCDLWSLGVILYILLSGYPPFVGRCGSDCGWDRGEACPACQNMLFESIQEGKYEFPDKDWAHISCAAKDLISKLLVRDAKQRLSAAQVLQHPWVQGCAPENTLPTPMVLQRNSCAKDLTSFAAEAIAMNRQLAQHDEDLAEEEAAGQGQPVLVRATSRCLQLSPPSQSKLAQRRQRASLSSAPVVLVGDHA
# Sequence of hERG channel (Q12809 whole entry): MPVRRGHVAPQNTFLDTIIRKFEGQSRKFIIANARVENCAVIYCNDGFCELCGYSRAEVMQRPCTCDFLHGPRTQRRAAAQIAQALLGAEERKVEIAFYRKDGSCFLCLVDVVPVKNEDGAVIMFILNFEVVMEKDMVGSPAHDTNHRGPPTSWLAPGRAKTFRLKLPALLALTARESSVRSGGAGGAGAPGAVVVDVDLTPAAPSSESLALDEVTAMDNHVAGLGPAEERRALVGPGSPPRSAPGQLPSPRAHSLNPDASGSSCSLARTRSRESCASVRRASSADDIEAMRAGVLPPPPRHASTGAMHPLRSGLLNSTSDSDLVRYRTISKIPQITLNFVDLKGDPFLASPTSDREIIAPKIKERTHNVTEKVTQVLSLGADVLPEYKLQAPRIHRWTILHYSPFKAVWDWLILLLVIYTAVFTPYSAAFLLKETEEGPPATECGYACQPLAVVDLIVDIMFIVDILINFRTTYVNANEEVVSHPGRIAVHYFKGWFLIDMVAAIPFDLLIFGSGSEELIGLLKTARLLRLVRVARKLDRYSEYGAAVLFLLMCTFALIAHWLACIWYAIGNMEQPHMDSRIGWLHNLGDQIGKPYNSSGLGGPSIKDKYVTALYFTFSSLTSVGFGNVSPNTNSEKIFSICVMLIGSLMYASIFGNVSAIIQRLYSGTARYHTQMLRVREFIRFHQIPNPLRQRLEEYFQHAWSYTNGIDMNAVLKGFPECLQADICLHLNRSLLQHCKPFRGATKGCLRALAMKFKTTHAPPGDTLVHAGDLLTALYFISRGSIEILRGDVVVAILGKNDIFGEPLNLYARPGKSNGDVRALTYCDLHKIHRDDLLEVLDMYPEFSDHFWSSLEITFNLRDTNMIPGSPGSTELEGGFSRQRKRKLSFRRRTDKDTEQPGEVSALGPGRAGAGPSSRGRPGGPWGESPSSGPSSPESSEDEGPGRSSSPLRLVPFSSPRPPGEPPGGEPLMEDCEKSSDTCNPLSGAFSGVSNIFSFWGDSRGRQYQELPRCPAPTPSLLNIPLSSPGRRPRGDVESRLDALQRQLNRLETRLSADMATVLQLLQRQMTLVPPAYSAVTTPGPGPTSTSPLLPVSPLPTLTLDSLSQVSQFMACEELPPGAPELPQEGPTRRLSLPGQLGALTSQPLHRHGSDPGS
# T13 sequence (Q6PHR2 whole entry): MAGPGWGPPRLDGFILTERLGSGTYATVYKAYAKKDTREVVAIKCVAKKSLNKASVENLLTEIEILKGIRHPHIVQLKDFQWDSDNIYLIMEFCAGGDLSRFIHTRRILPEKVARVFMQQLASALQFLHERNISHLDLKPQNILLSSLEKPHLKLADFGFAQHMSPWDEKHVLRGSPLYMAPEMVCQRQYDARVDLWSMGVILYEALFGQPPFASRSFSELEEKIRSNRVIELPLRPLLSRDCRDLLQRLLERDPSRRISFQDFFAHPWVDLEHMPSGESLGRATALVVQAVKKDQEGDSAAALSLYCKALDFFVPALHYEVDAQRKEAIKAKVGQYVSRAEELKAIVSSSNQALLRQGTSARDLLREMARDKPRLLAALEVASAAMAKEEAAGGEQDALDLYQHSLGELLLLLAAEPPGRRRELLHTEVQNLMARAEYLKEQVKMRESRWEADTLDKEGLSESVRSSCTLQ
# T1 sequence (P78356 whole entry): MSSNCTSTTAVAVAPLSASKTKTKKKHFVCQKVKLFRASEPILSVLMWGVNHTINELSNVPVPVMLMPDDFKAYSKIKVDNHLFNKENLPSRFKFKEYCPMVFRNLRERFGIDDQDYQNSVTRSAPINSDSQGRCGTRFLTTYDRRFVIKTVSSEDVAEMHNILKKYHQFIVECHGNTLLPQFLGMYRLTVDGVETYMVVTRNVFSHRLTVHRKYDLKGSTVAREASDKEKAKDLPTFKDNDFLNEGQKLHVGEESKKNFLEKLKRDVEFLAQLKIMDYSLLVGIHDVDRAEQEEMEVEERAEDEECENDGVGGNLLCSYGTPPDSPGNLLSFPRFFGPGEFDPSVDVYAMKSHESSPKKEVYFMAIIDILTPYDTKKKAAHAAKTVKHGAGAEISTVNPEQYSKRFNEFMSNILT
# T19 sequence (Q96SB4 whole entry): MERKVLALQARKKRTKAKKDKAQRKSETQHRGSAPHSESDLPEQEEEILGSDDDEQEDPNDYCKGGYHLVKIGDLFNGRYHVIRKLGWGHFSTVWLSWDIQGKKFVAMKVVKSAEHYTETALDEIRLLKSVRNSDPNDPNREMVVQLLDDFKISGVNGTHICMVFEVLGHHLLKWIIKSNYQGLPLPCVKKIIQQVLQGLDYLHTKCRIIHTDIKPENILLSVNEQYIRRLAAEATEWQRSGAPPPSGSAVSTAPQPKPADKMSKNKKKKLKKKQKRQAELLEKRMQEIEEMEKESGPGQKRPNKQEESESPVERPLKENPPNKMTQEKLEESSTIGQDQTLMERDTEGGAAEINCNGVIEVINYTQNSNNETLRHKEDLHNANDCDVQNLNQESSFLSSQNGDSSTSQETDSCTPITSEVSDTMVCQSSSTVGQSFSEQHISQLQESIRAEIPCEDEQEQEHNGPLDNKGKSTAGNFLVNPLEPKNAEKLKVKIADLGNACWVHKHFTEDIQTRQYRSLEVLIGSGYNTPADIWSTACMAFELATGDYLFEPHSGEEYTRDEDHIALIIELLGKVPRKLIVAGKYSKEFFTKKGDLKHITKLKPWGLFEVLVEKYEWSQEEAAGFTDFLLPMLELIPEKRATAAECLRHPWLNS
# T16 sequence (Q9BYT3 whole entry): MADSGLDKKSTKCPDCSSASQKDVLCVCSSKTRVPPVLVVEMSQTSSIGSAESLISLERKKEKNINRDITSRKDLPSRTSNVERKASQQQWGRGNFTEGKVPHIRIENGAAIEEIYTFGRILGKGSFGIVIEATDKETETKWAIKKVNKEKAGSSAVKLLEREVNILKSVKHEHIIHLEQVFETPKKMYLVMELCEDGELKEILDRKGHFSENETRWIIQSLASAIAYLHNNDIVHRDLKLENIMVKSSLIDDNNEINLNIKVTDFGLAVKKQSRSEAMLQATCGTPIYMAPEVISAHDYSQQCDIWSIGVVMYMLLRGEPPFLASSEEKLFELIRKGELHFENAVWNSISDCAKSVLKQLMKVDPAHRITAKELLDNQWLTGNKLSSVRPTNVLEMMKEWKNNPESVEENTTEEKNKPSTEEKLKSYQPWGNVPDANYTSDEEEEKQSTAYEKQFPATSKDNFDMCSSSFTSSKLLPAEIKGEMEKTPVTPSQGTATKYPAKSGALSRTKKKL
smiles,measurement,setting,value
"C#Cc1cccc(Nc2ncnc3cc(OC)c(OCCCN4CCOCC4)cc23)c1 [NRC-2694, N-(3-ethylnylphenyl)-7-methoxy-6-[3-(4-morpholinyl)propoxy]-4-quinazolinamine]","hERG channel, conclusion",hERG channel,an inhibitor of the hERG channel
same,% Ctrl @ 10000 nM,PIP5K2B,49 % Ctrl
same,% Ctrl @ 10000 nM,CHEK1,42 % Ctrl
same,% Ctrl @ 10000 nM,DYRK1B,66 % Ctrl
same,% Ctrl @ 10000 nM,MRCKB,71 % Ctrl
same,% Ctrl @ 10000 nM,ABL2,43 % Ctrl
same,% Ctrl @ 10000 nM,NEK2,63 % Ctrl
same,% Ctrl @ 10000 nM,FES,72 % Ctrl
same,% Ctrl @ 10000 nM,MKNK2,16 % Ctrl
same,% Ctrl @ 10000 nM,DDR1,39 % Ctrl
same,% Ctrl @ 10000 nM,SRMS,100 % Ctrl
same,% Ctrl @ 10000 nM,PCTK1,100 % Ctrl
same,% Ctrl @ 10000 nM,CDK3,91 % Ctrl
same,% Ctrl @ 10000 nM,ULK3,62 % Ctrl
same,% Ctrl @ 10000 nM,DAPK3,34 % Ctrl
same,% Ctrl @ 10000 nM,MEK1,50 % Ctrl
same,% Ctrl @ 10000 nM,STK33,43 % Ctrl
same,% Ctrl @ 10000 nM,CDK2,94 % Ctrl
same,% Ctrl @ 10000 nM,MEK6,75 % Ctrl
same,% Ctrl @ 10000 nM,SRPK1,40 % Ctrl
same,% Ctrl @ 10000 nM,BMPR1A,100 % Ctrl
same,% Ctrl @ 10000 nM,PKAC-alpha,100 % Ctrl
same,% Ctrl @ 10000 nM,PRKCD,84 % Ctrl
